From patent US20050261260A1, “Combination of a CDK inhibitor and mitoxantrone” (Cyclacel Limited, priority 2002, published 2005)
Converted amounts (≈) assume the structure as drawn. “And” between values parts separate entries of the source, which are not always exact repeats. Equal values may be shown once. Read-outs that look alike come from different tables or passages of the source.

Tests used:
[1] = test system: prostate tumor cells (PC-3); assay: cells; conditions: Homo sapiens, 24 h, read-out: IC50 (concentration listed as 100 % IC50), PC-3
[2] = test system: prostate tumor cells (PC-3)
[3] = concurrent 24 h exposure, % IC50 0/100: roscovitine 0, mitox. 12.50 ng/ml
[4] = mitoxantrone 24 h then roscovitine 24 h, % IC50 0/100: roscovitine 0, mitox. 15.00 ng/ml
[5] = roscovitine 24 h then mitoxantrone 24 h, % IC50 0/100: roscovitine 0, mitox. 10.00 ng/ml
[6] = mitoxantrone 24 h then roscovitine 24 h, % IC50 100/0: roscovitine 30.00 ug/ml, mitox. 0

| Compound | IC50 ([1]; Table 3, roscovitine 24 h then mitoxantrone 24 h) [µg/mL] | IC50 ([1]; Table 5, mitoxantrone 24 h then roscovitine 24 h) [µg/mL] | IC50 ([1]; Table 7, concurrent 24 h exposure) [µg/mL] | % Abs [2, 3] | % Response [2, 3] [%] | Mean (absorbance) [2, 3] | Well 1-3 (absorbance) [2, 3] | % Abs [2, 4] [%] | % Response [2, 4] [%] | Mean (absorbance) [2, 4] | Well 1-3 (absorbance) [2, 4] | % Abs [2, 5] [%] | % Response [2, 5] [%] | Mean (absorbance) [2, 5] | Well 1-3 (absorbance) [2, 5] | % Abs [2, 6] [%] | % Response [2, 6] [%] | Mean (absorbance) [2, 6] | Well 1-3 (absorbance) [2, 6] |
| --- | --- | --- | --- | --- | --- | --- | --- | --- | --- | --- | --- | --- | --- | --- | --- | --- | --- | --- | --- |
| O=C1c2c(O)ccc(O)c2C(=O)c2c(NCCNCCO)ccc(NCCNCCO)c21 [Mitoxantrone, 1,4-dihydroxy-5,8-bis[{2-[(2-hydroxyethyl)amino]ethyl}amino]-9,10-anthracendione] | 0.01 (≈ 0.0225 µM) | 0.015 (≈ 0.0337 µM) | 0.0125 (≈ 0.0281 µM) | 51.8% and 54.7% | 45.3 | 0.418 | 0.415 and 0.424 and 0.414 | 47.0 | 53.0 | 0.367 | 0.373 and 0.371 and 0.358 | 62.7 | 37.3 | 0.501 | 0.532 and 0.487 and 0.483 | – | – | – | – |
| CC[C@H](CO)Nc1nc(NCc2ccccc2)c2ncn(C(C)C)c2n1 [Roscovitine, 6-benzylamino-2-[(R)-1-ethyl-2-hydroxyethylamino]-9-isopropylpurine] | – | – | – | – | – | – | – | – | – | – | – | – | – | – | – | 21.9 | 78.1 | 0.171 | 0.165 and 0.162 and 0.186 |
